Holding throughout (experiment): NCI anticancer screen, dose series, 48 h
The subject of test [1] is NCI-H522 lung.
Test [2] relates to HT29 colon.
For test [3], the system named is MALME-3M melanoma.
In test [4] the test system is SK-OV-3 ovarian.
The test system of test [5] is NCI/ADR-RES ovarian.
The subject of test [6] is UACC-62 melanoma.
Test [7] concerns SK-MEL-28 melanoma.
Test [8] relates to CCRF-CEM leukemia.
Test [9] relates to SF-268 CNS.
The subject of test [10] is MCF7 breast.

The values below come from PubChem BioAssay (NCI).

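Cultured in 96-well plates, cells were exposed to test compound for 48 hours across five concentrations. GI50 marks 50% less growth. TGI: concentration producing complete growth inhibition.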

On to `CC1(C)N=C(N)N=C(N)N1c1ccc(CCC(=O)Nc2ccc(S(=O)(=O)F)cc2)c(Cl)c1`, for which the GI50 was 0.642 µM in test [1]; 0.15 µM in test [2]; 19.9 µM in test [3]; 8.56 µM in [4]; greater than 100 µM in test [5]; 0.287 µM in test [6]. For the same molecule, the GI50 in [7] was 22.8 µM; in test [8], 0.522 µM; in test [9], 0.507 µM; in [10], 0.515 µM. In addition, the TGI in test [1], in test [2], in [3], in [4], in [5] and in [6] was greater than 100 µM in each case. Further, the TGI in test [7], in test [8], in test [9] and in test [10] was greater than 100 µM each time.
Turning to `CCOc1cccc(/C=N/NC(=O)c2cccc(Nc3ccnc(C(F)(F)F)c3)c2)c1O`, the GI50 in test [1] is 4.54 µM; in test [2] it was 5.34 µM; in test [3], 1.82 µM; in test [4], 0.796 µM; in [5] it was 3.02 µM; in [6] it was 0.551 µM. In addition, the GI50 is 2.31 µM in test [7], 0.18 µM in test [8], 0.873 µM in [9] and 0.945 µM in test [10]. In addition, the TGI in test [1] was 32.5 µM; in test [2], greater than 82.7 µM; in [3], 18.9 µM; in test [4], 33.1 µM; in [5], 27.8 µM; in [6], 11.7 µM. For the same molecule, the TGI in test [7] was 36.6 µM; in test [8], greater than 100 µM; in test [9] it was greater than 45.3 µM; in test [10], 21.1 µM.
In the case of `CC/C=C\C[C@H]1CC=C2C(=O)C=C[C@@H]2CC=CCCCC(=O)O[C@@H](CCCCC)CC=C2C(=O)C=C[C@@H]2CC=CCCCC(=O)O[C@@H](CCCCC)CC=C2C(=O)C=C[C@@H]2CC=CCCCC(=O)O[C@@H](CCCCC)CC=C2C(=O)C=C[C@@H]2CC=CCCCC(=O)O1`, the GI50 was 1.76 µM in test [1]; 2.86 µM in [2]; 2.77 µM in test [3]; 7.64 µM in test [4]; greater than 7.9 µM in [5]; 1.52 µM in test [6]. For the same molecule, the GI50 in test [7] is 1.99 µM; in test [8] it was 1.65 µM; in test [9], 2.62 µM; in test [10], 1.46 µM. Besides, the TGI was 4.48 µM in [1]; 6.93 µM in test [2]; greater than 7.9 µM in test [3]; greater than 7.9 µM in [4]; greater than 7.9 µM in [5]; 3.59 µM in test [6]. Besides, the TGI in test [7] is 6.3 µM; in test [8], greater than 7.9 µM; in [9], greater than 7.9 µM; in [10] it was greater than 7.9 µM.
Turning to `Cc1cc(Cl)ccc1OCC(=O)Nc1nc2c(Cl)cccc2s1`, the GI50 in [1] was 46.9 µM; in test [2] it was greater than 100 µM; in test [3], greater than 100 µM; in [4], 96.2 µM; in test [5], 23.8 µM; in test [6] it was 7.41 µM. In addition, the GI50 in [7] was greater than 100 µM; in [8], 6.94 µM; in test [9] it was 28.8 µM; in [10], 11.2 µM. Further, the TGI in [1], in [2], in test [3], in test [4], in test [5] and in [6] was greater than 100 µM in each case. Besides, the TGI in [7] is greater than 100 µM; in test [8] it was 35.7 µM; in test [9], greater than 100 µM; in test [10], 24 µM.
Regarding `O=c1[nH]c2ccccc2cc1-c1nc2ccc(Cl)cc2[nH]1`, the GI50 was 6.79 µM in test [1]; 4.24 µM in test [2]; greater than 100 µM in test [3]; 2.22 µM in [4]; 6.09 µM in [5]; 2.83 µM in test [6]. Further, the GI50 is 6.66 µM in [7], 3.24 µM in test [8], 6.09 µM in test [9] and 1.4 µM in [10]. The TGI in [1] was greater than 100 µM; in test [2] it was greater than 100 µM; in test [3], greater than 100 µM; in [4], 8.01 µM; in test [5] it was greater than 100 µM; in [6], greater than 100 µM. For the same molecule, the TGI was 45.7 µM in [7], greater than 100 µM in [8], greater than 100 µM in [9] and greater than 100 µM in [10].
As to `CCN1C(=O)c2ccc3c4c(ccc(c24)C1=O)C(=O)N(CCCNCc1ccccc1OC)C3=O`, the GI50 in test [1] was 1.19 µM; in test [2], 0.404 µM; in test [3] it was 0.186 µM; in test [4] it was 2.28 µM; in test [5], 1.04 µM; in [6], 0.468 µM. For the same molecule, the GI50 in test [7] is 1.58 µM; in [8] it was 0.793 µM; in test [9], 1.15 µM; in test [10], 0.205 µM. The TGI in [1] was 2.68 µM; in test [2], 3.67 µM; in [3], 0.391 µM; in [4] it was 7.04 µM; in test [5] it was 5.96 µM; in [6], 1.63 µM. For the same molecule, the TGI was determined as 3.24 µM in test [7], 9.41 µM in test [8], 5.75 µM in test [9] and 0.584 µM in test [10].
In the case of `CN(c1ccc(NC(=O)Nc2c(Cl)cccc2Cl)cc1)c1ccnc(Nc2cccc(CS(C)(=O)=O)c2)n1`, the GI50 in test [1] is 3.1 µM; in [2], 2.16 µM; in [3], 1.53 µM; in test [4], 4.72 µM; in test [5] it was 5.49 µM; in test [6], 3.11 µM. For the same molecule, the GI50 in [7] is 3.56 µM; in test [8] it was 0.109 µM; in test [9], 2.19 µM; in test [10], 2.82 µM. Also, the TGI in test [1] was 9.23 µM; in [2] it was 7.81 µM; in [3], greater than 14.4 µM; in [4], 12 µM; in [5], greater than 25 µM; in [6], 8.36 µM. Besides, the TGI in [7] was 9.47 µM; in test [8], greater than 25 µM; in test [9], 10.7 µM; in [10], greater than 14.3 µM.
